Here are results for five molecules from US9957270B2, “Fused pyrimidine-based hydroxamate derivatives” (Agency for Science, Technology and Research, priority 2014, dated 2018).

Data set [1] deals with T1, PI3Kβ (Homo sapiens, UniProt P42338).
T1 construct: purchased SignalChem or BPS P28-10H / 40622
Description: Kinase enzyme assay (ADP-Glo), PI3Kβ. In kind it is biochemical. The note with it: read-out: In Vitro Enzymatic IC50 PI3Kβ.

In data set [2] the target is T2, p110α(E545K)/p85α (Homo sapiens, UniProt P42336, E545K).
T2 construct: purchased SignalChem P27-15H
Briefly: Kinase enzyme assay (ADP-Glo), PI3Kα (E545K). In kind it is biochemical. To be noted: read-out: In Vitro Enzymatic IC50 PI3Kα (E545K).

Data set [3] has as its target HDAC (HeLa nuclear extracts). Briefly: HDAC enzyme assay, HeLa nuclear extracts. To be noted: read-out: In Vitro Enzymatic IC50 HDAC (HeLa).
For data set [4], the target named is T3, HDAC6 (Homo sapiens, UniProt Q9UBN7).
T3 sequence (Q9UBN7 1-1215): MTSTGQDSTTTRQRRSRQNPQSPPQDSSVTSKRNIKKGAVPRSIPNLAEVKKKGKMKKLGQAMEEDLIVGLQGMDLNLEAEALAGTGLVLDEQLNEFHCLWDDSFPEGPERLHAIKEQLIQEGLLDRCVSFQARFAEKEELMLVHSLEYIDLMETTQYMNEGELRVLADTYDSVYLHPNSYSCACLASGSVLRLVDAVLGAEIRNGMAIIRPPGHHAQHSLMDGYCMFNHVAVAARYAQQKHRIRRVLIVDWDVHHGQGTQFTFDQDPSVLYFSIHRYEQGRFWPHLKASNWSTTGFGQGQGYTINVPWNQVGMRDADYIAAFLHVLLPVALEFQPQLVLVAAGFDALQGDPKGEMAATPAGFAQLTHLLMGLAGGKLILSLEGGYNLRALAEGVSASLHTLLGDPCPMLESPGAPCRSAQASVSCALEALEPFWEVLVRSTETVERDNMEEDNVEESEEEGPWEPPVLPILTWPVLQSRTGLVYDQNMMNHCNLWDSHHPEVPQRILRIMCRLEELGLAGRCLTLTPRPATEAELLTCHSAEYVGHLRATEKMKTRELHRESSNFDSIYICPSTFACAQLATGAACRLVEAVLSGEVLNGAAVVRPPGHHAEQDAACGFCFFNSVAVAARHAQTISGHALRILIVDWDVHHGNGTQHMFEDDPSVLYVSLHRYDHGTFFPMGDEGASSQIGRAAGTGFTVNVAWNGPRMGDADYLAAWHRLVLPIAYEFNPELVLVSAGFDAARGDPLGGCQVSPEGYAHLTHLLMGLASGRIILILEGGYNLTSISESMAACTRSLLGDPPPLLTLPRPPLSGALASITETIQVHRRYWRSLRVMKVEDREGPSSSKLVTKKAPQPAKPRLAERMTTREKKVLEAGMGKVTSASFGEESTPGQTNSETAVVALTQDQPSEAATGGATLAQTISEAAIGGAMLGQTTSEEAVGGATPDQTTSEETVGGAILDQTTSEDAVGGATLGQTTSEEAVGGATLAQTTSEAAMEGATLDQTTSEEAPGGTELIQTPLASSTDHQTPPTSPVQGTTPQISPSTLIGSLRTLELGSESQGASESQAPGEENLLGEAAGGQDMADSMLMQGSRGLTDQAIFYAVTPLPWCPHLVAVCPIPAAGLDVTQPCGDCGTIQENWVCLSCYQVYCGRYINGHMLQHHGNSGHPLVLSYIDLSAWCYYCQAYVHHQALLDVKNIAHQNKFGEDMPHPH
Description: HDAC enzyme assay, recombinant HDAC6.

Data set [5] has as its target T4, PI3Kα (Homo sapiens, UniProt P42336).
T4 construct: purchased Invitrogen, or BPS Bioscience Inc., or SignalChem PV4788 / 40620 / P27-18H
Briefly: Kinase enzyme assay (ADP-Glo), PI3Kα. In kind it is biochemical. To be noted: read-out: In Vitro Enzymatic IC50 PI3Kα.

Data set [6] deals with HDAC1 (Homo sapiens, UniProt Q13547). Briefly: HDAC enzyme assay, recombinant HDAC1.
Data set [7] deals with T5, p110α(H1047R)/p85α (Homo sapiens, UniProt P42336, H1047R).
T5 construct: purchased BPS 40641
Description: Kinase enzyme assay (ADP-Glo), PI3Kα (H1047R). Format: biochemical. To be noted: read-out: In Vitro Enzymatic IC50 PI3Kα (H1047R).

For data set [8], the system named is MOLT-4. Description: Anti-proliferative assay (cellular IC50), MOLT-4. To be noted: Homo sapiens, MOLT-4, 72 h, read-out: In Vitro Cellular IC50 MOLT-4.
A short description of data set [9]: Microsomal stability, mouse liver microsomes. The note with it: mouse, microsomes, 0.5 h, 5 μM, pH 7.4. Here is the method:
(§1) GIBIO pooled human liver microsomes (HLM) (Cat # HMMCPL), mouse liver microsomes (MLM) (Cat # BCMCPL), and rat liver microsomes (RLM) (Cat # RTMCPL) were purchased from Life Technologies. […] Samples are incubated for 30, 45, or 60 min. Reaction is terminated with ice-cold acetonitrile 0.3% formic acid. Samples are subsequently centrifuged at 4° C. for 15 min at 20,000×g. The supernatant is analysed by LC-MS.
(§2) Compound in vitro metabolic stability was assayed using liver microsomes (LM) at 0.5 mg/mL of proteins, incubated for 30 min (mouse, MLM), 45 min (rat, RLM), 30 or 45 min (human, HLM). % of remaining parent compound was measured using LC-MS.

The subject of data set [10] is MCF7. Briefly: Anti-proliferative assay (cellular IC50), MCF7. To be noted: Homo sapiens, MCF7, 72 h, read-out: In Vitro Cellular IC50 MCF7.
Data set [11] is described as follows: Microsomal stability, rat liver microsomes. To be noted: rat, microsomes, 0.75 h, 5 μM, pH 7.4. Here is the method: as §1, §2
The subject of data set [12] is COLO 205. Description: cells. To be noted: Homo sapiens, COLO 205, 72 h, read-out: In Vitro Cellular IC50 COLO 205.
Data set [13] concerns K-562. Description: Anti-proliferative assay (cellular IC50), K-562. The note with it: Homo sapiens, K562, 72 h, read-out: In Vitro Cellular IC50 K-562.
The subject of data set [14] is HCT 116. Description: cells. To be noted: Homo sapiens, HCT-116, 72 h, read-out: In Vitro Cellular IC50 HCT 116.
The nature of data set [15]: Microsomal stability, human liver microsomes. The note with it: human, microsomes, 0.75 h, 5 μM, pH 7.4. Here is the method:
as §1, §2

Data set [16] deals with PC-3. Description: Anti-proliferative assay (cellular IC50), PC-3. The note with it: Homo sapiens, PC-3, 72 h, read-out: In Vitro Cellular IC50 PC-3.
Data set [17] has as its system MV-4-11. Briefly: cells. To be noted: Homo sapiens, MV4-11, 72 h, read-out: In Vitro Cellular IC50 MV-4-11.

HDAC1, sequence (Q13547 whole entry): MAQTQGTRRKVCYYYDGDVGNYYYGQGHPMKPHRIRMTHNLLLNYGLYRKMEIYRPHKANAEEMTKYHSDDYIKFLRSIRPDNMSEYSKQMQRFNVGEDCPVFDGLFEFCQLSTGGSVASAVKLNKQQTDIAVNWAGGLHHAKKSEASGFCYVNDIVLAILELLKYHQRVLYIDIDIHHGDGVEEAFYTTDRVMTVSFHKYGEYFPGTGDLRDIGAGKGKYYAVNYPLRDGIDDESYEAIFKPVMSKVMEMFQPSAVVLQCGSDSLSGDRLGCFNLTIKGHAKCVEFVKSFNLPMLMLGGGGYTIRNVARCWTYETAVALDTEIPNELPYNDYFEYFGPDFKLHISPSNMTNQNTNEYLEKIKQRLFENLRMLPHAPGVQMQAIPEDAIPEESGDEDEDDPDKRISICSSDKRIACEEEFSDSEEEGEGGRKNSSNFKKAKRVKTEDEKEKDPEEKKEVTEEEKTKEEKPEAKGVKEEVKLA
T4 sequence (P42336 whole entry): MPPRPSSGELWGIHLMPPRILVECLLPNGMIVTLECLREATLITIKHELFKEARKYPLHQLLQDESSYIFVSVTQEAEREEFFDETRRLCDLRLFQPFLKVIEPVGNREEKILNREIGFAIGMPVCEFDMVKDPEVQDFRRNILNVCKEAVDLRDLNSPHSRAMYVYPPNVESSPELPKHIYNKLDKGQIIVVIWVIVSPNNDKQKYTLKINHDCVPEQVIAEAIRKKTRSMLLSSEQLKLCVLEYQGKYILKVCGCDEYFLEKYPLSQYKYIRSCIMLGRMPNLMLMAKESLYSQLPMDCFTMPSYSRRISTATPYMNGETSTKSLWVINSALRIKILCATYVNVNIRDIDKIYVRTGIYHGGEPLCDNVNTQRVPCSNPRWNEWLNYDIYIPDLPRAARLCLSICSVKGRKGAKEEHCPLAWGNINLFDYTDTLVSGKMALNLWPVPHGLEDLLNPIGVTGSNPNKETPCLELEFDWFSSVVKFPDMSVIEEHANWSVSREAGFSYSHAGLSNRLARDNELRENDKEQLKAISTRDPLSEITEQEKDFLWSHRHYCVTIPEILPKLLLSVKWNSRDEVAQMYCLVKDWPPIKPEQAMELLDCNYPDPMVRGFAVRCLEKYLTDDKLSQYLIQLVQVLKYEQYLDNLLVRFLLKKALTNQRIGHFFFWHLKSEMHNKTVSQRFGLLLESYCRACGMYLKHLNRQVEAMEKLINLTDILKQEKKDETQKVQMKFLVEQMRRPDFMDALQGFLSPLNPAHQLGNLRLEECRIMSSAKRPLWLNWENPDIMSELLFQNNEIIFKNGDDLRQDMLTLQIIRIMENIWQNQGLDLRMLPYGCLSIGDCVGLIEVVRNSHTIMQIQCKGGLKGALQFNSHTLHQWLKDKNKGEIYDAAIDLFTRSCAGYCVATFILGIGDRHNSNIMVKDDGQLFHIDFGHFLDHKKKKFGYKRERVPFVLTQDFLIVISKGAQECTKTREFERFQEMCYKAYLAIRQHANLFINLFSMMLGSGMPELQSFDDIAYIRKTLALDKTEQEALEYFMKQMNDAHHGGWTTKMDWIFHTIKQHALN
T4 sequence (P27986 whole entry partner): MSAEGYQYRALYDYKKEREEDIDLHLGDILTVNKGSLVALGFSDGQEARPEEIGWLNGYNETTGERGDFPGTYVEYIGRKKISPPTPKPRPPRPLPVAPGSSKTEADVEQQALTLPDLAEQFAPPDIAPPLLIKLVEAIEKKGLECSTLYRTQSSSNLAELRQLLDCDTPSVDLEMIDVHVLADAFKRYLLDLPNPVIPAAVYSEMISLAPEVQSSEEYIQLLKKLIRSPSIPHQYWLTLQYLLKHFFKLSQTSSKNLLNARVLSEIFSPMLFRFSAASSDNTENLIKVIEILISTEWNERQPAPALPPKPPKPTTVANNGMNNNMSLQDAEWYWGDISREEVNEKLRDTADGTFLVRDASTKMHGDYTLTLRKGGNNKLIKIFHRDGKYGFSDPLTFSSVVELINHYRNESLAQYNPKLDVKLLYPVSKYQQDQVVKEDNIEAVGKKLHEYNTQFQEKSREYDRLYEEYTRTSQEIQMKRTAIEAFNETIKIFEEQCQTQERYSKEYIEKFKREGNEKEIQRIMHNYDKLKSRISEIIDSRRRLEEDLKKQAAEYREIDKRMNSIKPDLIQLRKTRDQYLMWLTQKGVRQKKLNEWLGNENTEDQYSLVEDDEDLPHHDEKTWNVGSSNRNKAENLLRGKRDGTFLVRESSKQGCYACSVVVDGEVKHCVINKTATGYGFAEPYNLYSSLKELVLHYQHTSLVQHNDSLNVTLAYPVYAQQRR
T5 sequence (P42336 whole entry H1047R): as the sequence (P42336 whole entry) above, with H1047R counted along it
T5 sequence (P27986 whole entry partner): as the sequence (P27986 whole entry partner) above
T2 sequence (P42336 whole entry E545K): as the sequence (P42336 whole entry) above, with E545K counted along it
T2 sequence (P27986 whole entry partner): as the sequence (P27986 whole entry partner) above
T1 sequence (P42338 whole entry): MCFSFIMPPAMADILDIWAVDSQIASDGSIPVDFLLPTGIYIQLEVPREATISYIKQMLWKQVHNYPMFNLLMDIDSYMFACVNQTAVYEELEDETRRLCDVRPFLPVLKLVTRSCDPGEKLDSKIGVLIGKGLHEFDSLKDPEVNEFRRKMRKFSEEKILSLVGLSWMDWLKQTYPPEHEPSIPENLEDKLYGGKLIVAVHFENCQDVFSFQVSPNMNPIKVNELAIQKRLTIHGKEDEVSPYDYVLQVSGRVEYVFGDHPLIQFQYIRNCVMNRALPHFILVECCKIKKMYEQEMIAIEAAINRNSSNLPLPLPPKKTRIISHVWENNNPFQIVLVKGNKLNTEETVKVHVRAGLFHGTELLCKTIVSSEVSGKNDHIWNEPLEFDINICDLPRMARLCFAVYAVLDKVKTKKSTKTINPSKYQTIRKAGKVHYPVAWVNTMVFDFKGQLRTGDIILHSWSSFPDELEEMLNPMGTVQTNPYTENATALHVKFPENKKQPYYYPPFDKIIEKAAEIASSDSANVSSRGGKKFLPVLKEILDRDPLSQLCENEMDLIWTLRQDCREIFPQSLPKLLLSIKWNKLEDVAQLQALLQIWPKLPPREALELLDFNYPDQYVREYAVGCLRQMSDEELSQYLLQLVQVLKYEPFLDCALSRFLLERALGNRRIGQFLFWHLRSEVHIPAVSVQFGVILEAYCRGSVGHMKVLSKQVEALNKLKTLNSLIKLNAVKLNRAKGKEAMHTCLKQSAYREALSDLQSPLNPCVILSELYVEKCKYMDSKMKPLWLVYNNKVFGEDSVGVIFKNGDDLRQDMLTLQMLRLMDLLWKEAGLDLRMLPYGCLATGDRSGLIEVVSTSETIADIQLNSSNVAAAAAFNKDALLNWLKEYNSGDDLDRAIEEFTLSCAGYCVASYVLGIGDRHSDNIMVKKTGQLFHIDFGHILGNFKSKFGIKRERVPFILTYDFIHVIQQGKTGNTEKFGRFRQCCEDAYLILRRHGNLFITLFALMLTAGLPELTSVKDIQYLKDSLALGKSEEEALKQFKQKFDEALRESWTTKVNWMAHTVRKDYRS
T1 sequence (P27986 whole entry partner): as the sequence (P27986 whole entry partner) above

Consider `CC(C)n1cnc2c(N3CCOCC3)nc(-c3ccc(OCCCCCCC(=O)NO)cc3)nc21` [compound 81, N-hydroxy-7-(4-(9-isopropyl-6-morpholino-9H-purin-2-yl)phenoxy)heptanamide], for which the IC50 in data set [1] is 100 to 1000 nM; in [2] it was 10 to 100 nM; in data set [3] it was less than 10 nM; in data set [4], less than 10 nM; in [5], 10 to 100 nM; in data set [6], less than 10 nM. For the same molecule, the 50% inhibitory concentration (IC50) in data set [7] lay in the range of 10 to 100 nM.
Consider `CC(C)n1cnc2c(-c3cnc(N)nc3)nc(NCCCCCC(=O)NO)nc21` [compound 38, 6-((6-(2-aminopyrimidin-5-yl)-9-isopropyl-9H-purin-2-yl)amino)-N-hydroxyhexanamide], for which the IC50 in [1] is 100 to 1000 nM; in [2] it was 10 to 100 nM; in data set [3] it was less than 10 nM; in data set [4], less than 10 nM; in [5] it was 10 to 100 nM; in [6], less than 10 nM. In addition, in [7], the IC50 fell in the range of 10 to 100 nM.
For `CC(C)n1cnc2c(-c3cccc(OCCCC(=O)NO)c3)nc(N3CCCC3)nc21` [compound 29, N-hydroxy-4-(3-(9-isopropyl-2-(pyrrolidin-1-yl)-9H-purin-6-yl)phenoxy)butanamide], the IC50 in data set [8] is less than 500 nM; in data set [3] it was 100 to 1000 nM; in [10], 500 to 2000 nM; in data set [12], 500 to 2000 nM; in data set [13], 500 to 2000 nM; in data set [14] it was less than 500 nM. For the same molecule, the figures for the IC50 in data set [6], in data set [16] and in data set [17] were 10 to 100 nM, 500 to 2000 nM and less than 500 nM, respectively. Besides, the “Microsomal Stability MLM, % of remaining parent compound” value in [9] is reported as 75%. Also, the “Microsomal Stability RLM, % of remaining parent compound” value in data set [11] came to 9%. In addition, the “Microsomal Stability HLM, % of remaining parent compound” value in data set [15] was 97%.
Consider `CC(C)n1c(NCCCCCC(=O)NO)nc2c(-c3cnc(N)nc3)nc(N3CCOCC3)nc21` [compound 6], for which the IC50 in [8] fell in the range of 2000 to 10000 nM; in data set [3], 100 to 1000 nM; in [10], 2000 to 10000 nM; in data set [4], 100 to 1000 nM; in data set [12], 2000 to 10000 nM; in data set [13], 2000 to 10000 nM. Besides, the IC50 in [14] lay in the range of 500 to 2000 nM; in data set [5], 10 to 100 nM; in data set [6], 10 to 100 nM; in data set [16], 2000 to 10000 nM; in [17], 500 to 2000 nM. The “Microsomal Stability MLM, % of remaining parent compound” value in data set [9] came to 89%. The “Microsomal Stability RLM, % of remaining parent compound” value in [11] is 88%. Moreover, the “Microsomal Stability HLM, % of remaining parent compound” value in [15] is 88%.
In the case of `CCn1c(CN(C)Cc2ccc(/C=C/C(=O)NO)cc2)nc2c(N3CCOCC3)nc(-c3cnc(N)nc3)nc21` [compound 89, (E)-3-(4-((((2-(2-aminopyrimidin-5-yl)-9-ethyl-6-morpholino-9H-purin-8-yl)methyl)(methyl)amino)methyl)phenyl)-N-hydroxyacrylamide], the IC50 lay within 500 to 2000 nM in data set [8]; 100 to 1000 nM in data set [3]; 500 to 2000 nM in data set [10]; 2000 to 10000 nM in data set [12]; 2000 to 10000 nM in data set [13]; 10 to 100 nM in [5]. The IC50 in data set [6] was in the range of 100 to 1000 nM; in data set [16] it was 2000 to 10000 nM. Further, the “Microsomal Stability MLM, % of remaining parent compound” value in data set [9] is 70%. For the same molecule, the “Microsomal Stability RLM, % of remaining parent compound” value in data set [11] was found to be 70%. Besides, the “Microsomal Stability HLM, % of remaining parent compound” value in [15] is listed as 87%.
